The series concerns CCRIS mutagenicity, Ames/micronucleus/aberration tests. Put plainly: CCRIS mutagenicity studies.
Setting [1] is: Test System: AMES SALMONELLA TYPHIMURIUM, Strain/Indicator: TA98, Metabolic Activation: NONE, Method: PREINCUBATION
[2] abbreviates: Test System: AMES SALMONELLA TYPHIMURIUM, Strain/Indicator: TA98, Metabolic Activation: NONE, Method: STANDARD PLATE.
Setting [3] is: Test System: AMES SALMONELLA TYPHIMURIUM, Strain/Indicator: TA100, Metabolic Activation: NONE, Method: STANDARD PLATE.

The source made the active and inactive calls. No rule for the calls is given here.

For nine molecules, mutagenic call results are on record in PubChem BioAssay AID1259407 (Chemical Carcinogenesis Research Information System (CCRIS), 2018).

On to `C[C@]12CC[C@@H]3c4cc(O)c(O)cc4CC[C@H]3[C@@H]1CCC2=O`, for which the mutagenic call was “inactive; negative” (Test System: Ames Salmonella typhimurium, Strain/Indicator: TA98, Metabolic Activation: None, Method: Standard plate); “inactive; negative” (Test System: Ames Salmonella typhimurium, Strain/Indicator: TA98, Metabolic Activation: Rat, liver, S-9, Method: Standard plate); “inactive; negative” (Test System: Ames Salmonella typhimurium, Strain/Indicator: TA100, Metabolic Activation: None, Method: Standard plate); “inactive; negative” (Test System: Ames Salmonella typhimurium, Strain/Indicator: TA100, Metabolic Activation: Rat, liver, S-9, Method: Standard plate).
`CC(C)(C)NC(=O)C=Cc1ccc([N+](=O)[O-])o1`: the mutagenic call under setting [1] is “active; positive”.
Regarding `Cc1cccc(NC(=O)c2csc([N+](=O)[O-])c2)c1`, the mutagenic call by setting is: under setting [2], “active; positive”; under setting [3], “active; positive”.
With `O=S(O)O`, the mutagenic call is “inactive; negative” (Test System: AMES SALMONELLA TYPHIMURIUM, Strain/Indicator: GW19, Metabolic Activation: NONE, Method: PREINCUBATION (30-90 MIN)); “inactive; negative” (Test System: AMES SALMONELLA TYPHIMURIUM, Strain/Indicator: GW19, Metabolic Activation: NONE, Method: STANDARD PLATE); “active; positive” (Test System: AMES SALMONELLA TYPHIMURIUM, Strain/Indicator: HISG46, Metabolic Activation: NONE, Method: PREINCUBATION); “active; positive” (Test System: AMES SALMONELLA TYPHIMURIUM, Strain/Indicator: HISG46, Metabolic Activation: NONE, Method: PREINCUBATION (30-120 MIN)); “active; positive” (Test System: AMES SALMONELLA TYPHIMURIUM, Strain/Indicator: HISG46, Metabolic Activation: NONE, Method: STANDARD PLATE); “active; positive” (Test System: AMES SALMONELLA TYPHIMURIUM, Strain/Indicator: TA92, Metabolic Activation: NONE, Method: PREINCUBATION (30-90 MIN)). Also, the mutagenic call is, setting by setting: (Test System: AMES SALMONELLA TYPHIMURIUM, Strain/Indicator: TA92, Metabolic Activation: NONE, Method: STANDARD PLATE) “inactive; negative”; (Test System: AMES SALMONELLA TYPHIMURIUM, Strain/Indicator: TA97, Metabolic Activation: NONE, Method: PREINCUBATION) “inactive; negative”; (Test System: AMES SALMONELLA TYPHIMURIUM, Strain/Indicator: TA97, Metabolic Activation: RAT, LIVER, S-9, AROCLOR 1254, Method: PREINCUBATION) “inactive; negative”; under setting [2], “inactive; negative”; (Test System: AMES SALMONELLA TYPHIMURIUM, Strain/Indicator: TA98, Metabolic Activation: RAT, LIVER, S-9, AROCLOR 1254, Method: STANDARD PLATE) “inactive; negative”; under setting [3], “inactive; negative”. Further, the mutagenic call is “inactive; negative” (Test System: AMES SALMONELLA TYPHIMURIUM, Strain/Indicator: TA100, Metabolic Activation: RAT, LIVER, S-9, AROCLOR 1254, Method: STANDARD PLATE); “inactive; negative” (Test System: AMES SALMONELLA TYPHIMURIUM, Strain/Indicator: TA102, Metabolic Activation: NONE, Method: PREINCUBATION); “inactive; negative” (Test System: AMES SALMONELLA TYPHIMURIUM, Strain/Indicator: TA102, Metabolic Activation: RAT, LIVER, S-9, AROCLOR 1254, Method: PREINCUBATION); “inactive; negative” (Test System: AMES SALMONELLA TYPHIMURIUM, Strain/Indicator: TA1535, Metabolic Activation: NONE, Method: STANDARD PLATE); “inactive; negative” (Test System: AMES SALMONELLA TYPHIMURIUM, Strain/Indicator: TA1535, Metabolic Activation: RAT, LIVER, S-9, AROCLOR 1254, Method: STANDARD PLATE); “inactive; negative” (Test System: AMES SALMONELLA TYPHIMURIUM, Strain/Indicator: TA1537, Metabolic Activation: NONE, Method: STANDARD PLATE). Besides, the mutagenic call is “inactive; negative” (Test System: AMES SALMONELLA TYPHIMURIUM, Strain/Indicator: TA1537, Metabolic Activation: RAT, LIVER, S-9, AROCLOR 1254, Method: STANDARD PLATE); “inactive; negative” (Test System: AMES SALMONELLA TYPHIMURIUM, Strain/Indicator: TA1538, Metabolic Activation: NONE, Method: STANDARD PLATE); “inactive; negative” (Test System: AMES SALMONELLA TYPHIMURIUM, Strain/Indicator: TA1538, Metabolic Activation: RAT, LIVER, S-9, AROCLOR 1254, Method: STANDARD PLATE); “active; positive” (Test System: AMES SALMONELLA TYPHIMURIUM, Strain/Indicator: TA1950, Metabolic Activation: NONE, Method: PREINCUBATION (30-90 MIN)); “active; positive” (Test System: AMES SALMONELLA TYPHIMURIUM, Strain/Indicator: TA1950, Metabolic Activation: NONE, Method: STANDARD PLATE); “active; positive” (Test System: AMES SALMONELLA TYPHIMURIUM, Strain/Indicator: TA2410, Metabolic Activation: NONE, Method: PREINCUBATION (30-90 MIN)). The mutagenic call is “inactive; negative” (Test System: AMES SALMONELLA TYPHIMURIUM, Strain/Indicator: TA2410, Metabolic Activation: NONE, Method: STANDARD PLATE); “active; positive” (Test System: AMES SALMONELLA TYPHIMURIUM, Strain/Indicator: TS24, Metabolic Activation: NONE, Method: PREINCUBATION (30-90 MIN)); “active; positive” (Test System: AMES SALMONELLA TYPHIMURIUM, Strain/Indicator: TS24, Metabolic Activation: NONE, Method: STANDARD PLATE); “inactive; negative” (Test System: E. COLI, Strain/Indicator: WP2, Metabolic Activation: NONE, Method: STANDARD PLATE); “inactive; negative” (Test System: E. COLI, Strain/Indicator: WP2, Metabolic Activation: RAT, LIVER, S-9, AROCLOR 1254, Method: STANDARD PLATE).
Regarding `O=c1[nH]cc(CO)c(=O)[nH]1`, the mutagenic call (Test System: CHINESE HAMSTER V-79, Strain/Indicator: V-79 (HPRT)/6-THIOGUANINE, Metabolic Activation: NONE, Method: STANDARD PLATE) was “inactive; negative”.
For `C=CC(=O)OCCOC1CC2CC1C1CC=CC21` (stereo not given), the mutagenic call (Test System: MOUSE LYMPHOMA, Strain/Indicator: L5178Y (TK+/TK-), Metabolic Activation: NONE, Method: SUSPENSION/PLATE) is “active; positive”.
Regarding `Cc1cc(O)c2c(c1O)C(=O)c1c(-c3ccc(O)c4c3C(=O)c3c(O)c(C)cc(O)c3C4=O)ccc(O)c1C2=O`, for the setting “Test System: UDS RODENT HEPATOCYTES, Strain/Indicator: THY INCORP, Metabolic Activation: NONE, Method: AUTORADIOGRAPHY”, the mutagenic call is “inactive; negative”.
As to `COc1cc(-c2ccc(N/N=C3\C(=O)c4ccc(N)cc4C=C3S(=O)(=O)O)c(OC)c2)ccc1N/N=C1/C=C(S(=O)(=O)O)c2ccccc2C1=O`, the mutagenic call (Test System: AMES SALMONELLA TYPHIMURIUM, Strain/Indicator: TA98, Metabolic Activation: HAMSTER, LIVER, S-9, Method: PREINCUBATION (PRIVAL METHOD)) is “active; positive”.
As to `CC(=O)Nc1ccc(Oc2ccc(N(O)C=O)cc2)cc1`, the mutagenic call by setting is: (Test System: AMES SALMONELLA TYPHIMURIUM, Strain/Indicator: TA98(1,8-DNP6), Metabolic Activation: NONE, Method: PREINCUBATION) “active; positive”; (Test System: AMES SALMONELLA TYPHIMURIUM, Strain/Indicator: TA98(1,8-DNP6), Metabolic Activation: RAT, LIVER, S-9, AROCLOR 1254, Method: PREINCUBATION) “active; positive”; (Test System: AMES SALMONELLA TYPHIMURIUM, Strain/Indicator: TA98(NR), Metabolic Activation: NONE, Method: PREINCUBATION) “active; positive”; (Test System: AMES SALMONELLA TYPHIMURIUM, Strain/Indicator: TA98(NR), Metabolic Activation: RAT, LIVER, S-9, AROCLOR 1254, Method: PREINCUBATION) “active; positive”; under setting [1], “active; positive”; (Test System: AMES SALMONELLA TYPHIMURIUM, Strain/Indicator: TA98, Metabolic Activation: RAT, LIVER, S-9, AROCLOR 1254, Method: PREINCUBATION) “active; positive”. Also, the mutagenic call (Test System: AMES SALMONELLA TYPHIMURIUM, Strain/Indicator: TA100(NR), Metabolic Activation: NONE, Method: PREINCUBATION) is “active; positive”; the mutagenic call (Test System: AMES SALMONELLA TYPHIMURIUM, Strain/Indicator: TA100(NR), Metabolic Activation: RAT, LIVER, S-9, AROCLOR 1254, Method: PREINCUBATION) is “active; positive”; the mutagenic call (Test System: AMES SALMONELLA TYPHIMURIUM, Strain/Indicator: TA100, Metabolic Activation: NONE, Method: PREINCUBATION) is “active; positive”; the mutagenic call (Test System: AMES SALMONELLA TYPHIMURIUM, Strain/Indicator: TA100, Metabolic Activation: RAT, LIVER, S-9, AROCLOR 1254, Method: PREINCUBATION) is “active; positive”.
